Source: article PMC9743095 (Journal of Medicinal Chemistry, 2022)
Read-outs that look alike come from different tables or passages of the source.

Columns and labels:
[1] = molecular target: T1, adenosine deaminase (ADA) (Bos taurus, UniProt P56658); experiment: Adenosine deaminase assay (UV); format: in vitro ADME, Bovine; conditions: 62.5 μM
T1 construct: purchased Sigma-Aldrich 59722
T1 sequence (P56658 1-363): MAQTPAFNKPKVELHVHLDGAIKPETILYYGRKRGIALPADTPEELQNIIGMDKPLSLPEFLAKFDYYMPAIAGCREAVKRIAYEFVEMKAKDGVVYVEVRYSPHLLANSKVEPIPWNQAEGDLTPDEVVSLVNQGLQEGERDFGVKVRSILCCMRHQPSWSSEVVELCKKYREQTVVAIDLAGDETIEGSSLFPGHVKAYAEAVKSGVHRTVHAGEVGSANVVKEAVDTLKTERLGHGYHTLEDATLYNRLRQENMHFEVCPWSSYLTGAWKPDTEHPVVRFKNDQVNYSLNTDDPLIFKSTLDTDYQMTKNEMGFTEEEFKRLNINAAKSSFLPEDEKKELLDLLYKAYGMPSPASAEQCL
Procedure: Bovine recombinant adenosine deaminase (ADA, EC:3.5.4.4) was purchased from Sigma (Sigma-Aldrich, product number 59722). The ADA suspension (containing >2 U/mL) was aliquoted into 55 μL portions and kept at −20 °C. Before use, a 55 μL sample was thawed and 1 mL of phosphate buffer (0.1 N, pH 7.4) was added. The suspension was filtered through a 0.2 μm filter to remove precipitates that could interfere with the absorbance measurements. The clear supernatant was used for the degradation experiments. The experiments were conducted in UV transparent cuvettes (Sigma-Aldrich, code: Z637092) using an Envision microplate reader (PerkinElmer). […] Scans of the absorption spectrum were taken between 220 and 350 nm with 2 nm resolution every 0.1 min over a period of 10 min to 12 h. One sample containing only ADA was also prepared, and this was subtracted to obtain the spectrum over time for substrates.

[2] = test system: KG1a leukemic stem cells (Lin–/CD34+/CD38–/CD123+); experiment: Leukemic stem cell targeting in KG1a cultures (flow cytometry); format: cell-based, human; conditions: 72 h, LSC vs bulk tumor
Procedure: The acute myeloid leukemia (AML) KG1a cell line was maintained in RPMI medium (Invitrogen, Paisley, U.K.) supplemented with 100 units/mL penicillin, 100 μg/mL streptomycin, and 20% FBS. […] In addition, control cultures were carried out to which no drug was added. The cells were subsequently harvested by centrifugation and were analyzed by flow cytometry using the Annexin V assay. All experiments were performed in triplicate. LC50 values (the concentration of compound required to kill 50% of the cells in culture) were calculated by nonlinear regression modeling using GraphPad Prism software and are shown as mean ± standard error of the mean (SEM) for each replicate data set.
Cells were then harvested, and KG1a cells were labeled with anti-CD34 (FITC), anti-CD38 (PE), and anti-CD123 (PERCP cy5). The subpopulation expressing a leukemic stem cell (LSC) phenotype was subsequently identified and was expressed as a percentage of all viable cells left in the culture. The percentages of stem cells remaining were then plotted on a dose–response graph, and the effects of the ProTides were compared with the parental nucleoside to determine if they preferentially target cancer stem cells

[3] = Plasma stability; format: in vitro ADME, beagle dog; conditions: dog plasma, with or without EHNA
Procedure: (§1) Plasma samples (10 mL of human, beagle dog, mouse, or rats from Sera laboratories, U.K.) were treated with and without 1 μM of EHNA, after which 20 μM concentration of each drug (3′dA and ProTides) was added and incubated for 2 h at 37 °C with 5% CO2. After incubation, 100 μL of each sample was taken and 300 μL of 100% methanol was added and left on ice for 30 min. After 30 min, the mixture was centrifuged (14 000 rpm, 4 °C, 10 min), and the supernatant was transferred to new tubes and evaporated under SpeedVac. Then, the dried extract was reconstituted in 100 μL of 10% acetonitrile, then transferred to LC-MS vials, and 10 μL was injected into the UPLC-MS/MS system.

[4] = Plasma stability; format: in vitro ADME; conditions: mouse plasma
Procedure: as §1

[5] = test system: CRL cell line; experiment: ATP viability assay; format: cell-based; conditions: for CC50: Homo sapiens, read-out: LC50
Procedure: (§2) HL-60 (ATCC CCL-240), K562 (ATCC CCL-243), CCRF-CEM (ATCC CRM-CCL-119), and RL (ATCC CRL-2261) leukemia cell lines were obtained from the American Type Culture Collection (ATCC), Middlesex. HL-60 and K562 cell lines are deoxynucleotidyl transferase-negative (TdT^–ve), whereas CCRF-CEM cell line is TdT^+ve. They were cultured in RPMI-1640 medium (Sigma-Aldrich, U.K.), which were supplemented with 10% fetal bovine serum (FBS) (PAA Laboratories), 1% amphotericin B (5.5 mL), and 1% penicillin/streptomycin (5.5 mL) (PAA Laboratories) and grown in flasks at 37 °C in an incubator with 5% CO2. For the studies with inhibitors, the cells were treated with 10 μM nitrobenzylthioinosine (NBTI, hENT inhibitor) or 1 μM EHNA (EHNA hydrochloride) or A-134974 (A-134974 dihydrochloride hydrate) and left for 5 min before adding the drug. The cells were then incubated for 2 h at 37 °C with 5% CO2.
(§3) The amount of ATP was used as a measurement of cell number and cell viability. ATP ViaLightTM plus assay kit (Lonza: Product No. LT07-121) to detect ATP in cells treated in luminescence compatible 96-well plates (initial concentration of cells was 1 × 10^4 cells/well) with Cordycepin and ProTides at concentrations of 0, 0.1, 0.5, 1, 5, and 10 μM, followed by incubation for 72 h at 37 °C in an incubator with 5% CO2. For inhibitor studies, 10 μM NBTI or 1 μM EHNA or A-134974 was added and left for 5 min before adding the drugs. After incubation, 50 μL of cell lysis reagent was added to the 96-well plates to release the intracellular ATP, followed by 100 μL of ATP monitoring reagent (AMR). The luminescent values of each well were determined using FLUOstar OPTIMA microplate reader (BMG Labtech), which converted ATP into light using luciferase enzyme. Therefore, the amount of luminescence produced was directly proportional to the amount of ATP.

[6] = test system: K562 cell line; experiment: ATP viability assay; format: cell-based; conditions: Homo sapiens
Procedure: as §2, §3

[7] = test system: HL-60 cell line; experiment: ATP viability assay; format: cell-based; conditions: Homo sapiens
Procedure: as §2, §3

[8] = test system: CEM cell line; experiment: ATP viability assay; format: cell-based; conditions: for CC50: Homo sapiens, CCRF-CEM, read-out: LC50
Procedure: as §2, §3

Row | Structure (SMILES) | time to complete metabolic deamination by ADA ([1]; bovine, pH 7.4) | effect on proportion of leukemic stem cells (LSCs) [2] | stability in plasma [3] | half-life at 20 μM [4] [min] | improvement of LC50 on inhibition of ADA with EHNA ([5]; CRL) [fold] | CC50 ([5]; 72 h) [µM] | CC50 [5] [µM] | CC50 ([6]; K562, 72 h, read-out: LC50) [µM] | CC50 ([7]; HL-60, 72 h, read-out: LC50) [µM] | improvement of LC50 on inhibition of ADA with EHNA ([8]; CEM) [fold] | CC50 ([8]; 72 h) [µM] | CC50 [8] [µM] | UV absorbance spectra in absence and presence of ADA ([1]; ADA from calf, phosphate buffer pH 7.4, 25 °C, 12 h) | shift of the maximum absorption after ADA addition (deamination) ([1]; up to 2 h) | concentration detected after 30 s of incubation [4] [ng/mL] | LC50 change on ADA inhibition by EHNA ([8]; CEM) | CC50 ([6]; K562, Table S2, no inhibitors, 72 h, read-out: LC50 (the source's name)) [µM] | CC50 ([7]; HL-60, Table S2, no inhibitors, 72 h, read-out: LC50 (the source's name)) [µM]
1 | Nc1ncnc2c1ncn2[C@@H]1O[C@H](CO)C[C@H]1O [3′-dA, 3′-Deoxyadenosine, reference compound] | up to 2 minutes | increased selectivity and potency against the putative leukemic stem cells | like those found in human plasma | 25 | 2 | 24.5 | 7.3 | 10.9 | 11.4 | 16 | 19.5 | 11.5 | – | – | – | – | – | –
2 | C[C@H](NP(=O)(OC[C@@H]1C[C@@H](O)[C@H](n2cnc3c(N)ncnc32)O1)Oc1ccccc1)C(=O)OCc1ccccc1 (stereo partly drawn) [Compound 7a, (Rp)- and (Sp)-3′-Deoxyadenosine 5′-O-phenyl-(benzoxy-L-alaninyl)-phosphate] | – | significantly reducing the LSC population to a greater extent than the parent nucleoside at concentrations above 1 μM | like those found in human plasma | – | – | 2.1 | 3.6 | 2.4 | 4.6 | – | 0.87 | 1.4 | the two lines are superimposed | no shift of the maximum absorption at 265 nm | 0.5 | did not lead to any LC50 changes | – | –
3 | CCOC(=O)CCc1ccccc1OP(=O)(N[C@@H](C)C(=O)OCc1ccccc1)OC[C@@H]1C[C@@H](O)[C@H](n2cnc3c(N)ncnc32)O1 (stereo partly shown) [Compound 7e] | – | – | – | – | – | 3.4 | – | – | – | – | 4.3 | – | – | – | – | – | 6.3 | 8.3
